# Literature values as cited in patent US7541156B1, “Method of identifying antinociceptive compounds using protease activated receptor-2” (priority 2000, dated 2009).
# Tested on: peripheral afferent nerve endings
# Details: subcutaneous injection of 500 μg into the rat paw; cited from earlier work
substance,measurement,value
SLIGRL (PEPTIDE (1)..(6) PAR-2 activating peptide; listed as Rattus sp.) [AcPep],release of CGRP and Substance P from peripheral afferent nerve endings,results in the release of CGRP and Substance P
